In patent US5885985A, “Guanidine derivatives useful in therapy” (priority 1993, dated 1999):
Structures can show the parent of a compound that is named as a salt.

Assays:
[1] = molecular target: T1, macrophage isoform of nitric oxide synthetase (Mus musculus, UniProt P29477); assay: Screen for Macrophage Nitric Oxide Synthase Inhibition Activity; type: biochemical; conditions: lysate of induced murine J774A-1 cells; 1 hour at room temperature; read-out: IC50 in the screen for activity against the macrophage isoform of nitric oxide synthetase
T1 construct: endogenous in cells; host or cells: murine macrophage cell line J774A-1 (from laboratories of the Imperial Cancer Research Fund), induced with LPS and IFN-gamma
Description: The enzyme nitric oxide synthetase has a number of isoforms and compounds of formula I, or a pharmaceutically acceptable salt thereof, may be screened for nitric oxide synthetase inhibition activity by procedures based on those of Bredt and Snyder in Proc. Natl. Acad. Sci. (1990) 87, 682-685 and Forstermann et. al. (1992) Eur. J. Pharm. 225, 161-165. Nitric oxide synthetase converts ^3 H-L-arginine to ^3 H-L-citrulline which can be separated by cation exchange chromatography and quantified by liquid scintillation counting.
(2) Screen for Macrophage Nitric Oxide Synthase Inhibition Activity
Enzyme is prepared, after induction, from the cultured murine macrophage cell line J774A-1 (obtained from laboratories of the Imperial Cancer Research Fund). J774A-1 cells are cultured in Dulbecco's Modified Eagles Medium (DMEM) supplemented with 10% foetal bovine serum, 4 mM L-glutamine and antibiotics (100 units/ml penicillin G, 100 μg/ml streptomycin & 0.25 μg/ml amphotericin B). Cells are routinely grown in […] flasks containing 35 ml medium kept at 37° C. and in a humidified atmosphere containing 5% CO2.
Nitric oxide synthase is produced by cells in response to inferferon-γ(IFNγ) and lipopolysaccharide (LPS). […]
Labelled L-citrulline is separated from labelled L-arginine using Dowex AG-50W. […] After allowing the samples to dry the L-citrulline is quantified by scintillation counting. […]

[2] = molecular target: T2, endothelial isoform of nitric oxide synthetase (Homo sapiens, UniProt P29474); assay: Screen for Endothelial Nitric Oxide Synthase Inhibition Activity; type: biochemical
T2 construct: Enzyme may be isolated from human umbilical vein endothelial cells (HUVECs); host or cells: human umbilical vein endothelial cells (HUVECs), CHAPS-solubilised particulate fraction
T2 sequence (P29474 2-1203): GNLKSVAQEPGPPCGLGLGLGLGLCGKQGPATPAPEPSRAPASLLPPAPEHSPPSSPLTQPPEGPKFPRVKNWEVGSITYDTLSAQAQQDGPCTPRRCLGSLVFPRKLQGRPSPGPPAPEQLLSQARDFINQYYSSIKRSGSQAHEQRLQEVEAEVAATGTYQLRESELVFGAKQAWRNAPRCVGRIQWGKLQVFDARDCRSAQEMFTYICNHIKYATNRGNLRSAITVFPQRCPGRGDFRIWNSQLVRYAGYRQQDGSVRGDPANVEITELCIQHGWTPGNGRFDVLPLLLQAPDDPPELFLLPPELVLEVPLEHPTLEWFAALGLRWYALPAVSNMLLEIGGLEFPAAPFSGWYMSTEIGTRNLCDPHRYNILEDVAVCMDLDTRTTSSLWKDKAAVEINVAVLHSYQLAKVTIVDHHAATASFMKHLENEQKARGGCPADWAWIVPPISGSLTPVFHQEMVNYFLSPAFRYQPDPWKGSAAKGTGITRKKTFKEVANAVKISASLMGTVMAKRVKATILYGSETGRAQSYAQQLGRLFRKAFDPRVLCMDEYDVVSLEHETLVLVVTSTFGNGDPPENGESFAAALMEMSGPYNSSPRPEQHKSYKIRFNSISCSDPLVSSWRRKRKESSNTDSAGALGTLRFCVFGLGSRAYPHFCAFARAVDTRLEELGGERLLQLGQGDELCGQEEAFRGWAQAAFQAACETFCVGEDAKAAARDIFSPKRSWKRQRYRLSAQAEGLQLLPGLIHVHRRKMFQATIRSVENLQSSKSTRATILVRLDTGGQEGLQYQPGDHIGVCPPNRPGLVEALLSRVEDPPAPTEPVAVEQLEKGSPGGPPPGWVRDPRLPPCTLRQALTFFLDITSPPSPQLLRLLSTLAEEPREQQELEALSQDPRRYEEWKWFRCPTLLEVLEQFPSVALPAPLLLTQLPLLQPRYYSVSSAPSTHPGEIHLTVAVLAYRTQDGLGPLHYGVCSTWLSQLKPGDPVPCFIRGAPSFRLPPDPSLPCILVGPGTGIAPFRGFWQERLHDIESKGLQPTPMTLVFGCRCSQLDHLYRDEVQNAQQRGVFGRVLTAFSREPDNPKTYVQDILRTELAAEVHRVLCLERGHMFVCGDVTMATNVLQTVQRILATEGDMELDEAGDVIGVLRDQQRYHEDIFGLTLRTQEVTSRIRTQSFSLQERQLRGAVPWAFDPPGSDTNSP

[3] = molecular target: T3, neuronal isoform of nitric oxide synthetase (Rattus norvegicus, UniProt P29476); assay: biochemical; conditions: enzyme from rat hippocampus or cerebellum; 22° C., 10 minutes; read-out: IC50 in the screen for activity against the neuronal isoform of nitric oxide synthetase
T3 construct: Enzyme was isolated from rat hippocampus or cerebellum; from tissue; host or cells: hippocampus or cerebellum of male Sprague-Dawley rat (20,000 g supernatant)
T3 sequence (P29476 whole entry, canonical isoform): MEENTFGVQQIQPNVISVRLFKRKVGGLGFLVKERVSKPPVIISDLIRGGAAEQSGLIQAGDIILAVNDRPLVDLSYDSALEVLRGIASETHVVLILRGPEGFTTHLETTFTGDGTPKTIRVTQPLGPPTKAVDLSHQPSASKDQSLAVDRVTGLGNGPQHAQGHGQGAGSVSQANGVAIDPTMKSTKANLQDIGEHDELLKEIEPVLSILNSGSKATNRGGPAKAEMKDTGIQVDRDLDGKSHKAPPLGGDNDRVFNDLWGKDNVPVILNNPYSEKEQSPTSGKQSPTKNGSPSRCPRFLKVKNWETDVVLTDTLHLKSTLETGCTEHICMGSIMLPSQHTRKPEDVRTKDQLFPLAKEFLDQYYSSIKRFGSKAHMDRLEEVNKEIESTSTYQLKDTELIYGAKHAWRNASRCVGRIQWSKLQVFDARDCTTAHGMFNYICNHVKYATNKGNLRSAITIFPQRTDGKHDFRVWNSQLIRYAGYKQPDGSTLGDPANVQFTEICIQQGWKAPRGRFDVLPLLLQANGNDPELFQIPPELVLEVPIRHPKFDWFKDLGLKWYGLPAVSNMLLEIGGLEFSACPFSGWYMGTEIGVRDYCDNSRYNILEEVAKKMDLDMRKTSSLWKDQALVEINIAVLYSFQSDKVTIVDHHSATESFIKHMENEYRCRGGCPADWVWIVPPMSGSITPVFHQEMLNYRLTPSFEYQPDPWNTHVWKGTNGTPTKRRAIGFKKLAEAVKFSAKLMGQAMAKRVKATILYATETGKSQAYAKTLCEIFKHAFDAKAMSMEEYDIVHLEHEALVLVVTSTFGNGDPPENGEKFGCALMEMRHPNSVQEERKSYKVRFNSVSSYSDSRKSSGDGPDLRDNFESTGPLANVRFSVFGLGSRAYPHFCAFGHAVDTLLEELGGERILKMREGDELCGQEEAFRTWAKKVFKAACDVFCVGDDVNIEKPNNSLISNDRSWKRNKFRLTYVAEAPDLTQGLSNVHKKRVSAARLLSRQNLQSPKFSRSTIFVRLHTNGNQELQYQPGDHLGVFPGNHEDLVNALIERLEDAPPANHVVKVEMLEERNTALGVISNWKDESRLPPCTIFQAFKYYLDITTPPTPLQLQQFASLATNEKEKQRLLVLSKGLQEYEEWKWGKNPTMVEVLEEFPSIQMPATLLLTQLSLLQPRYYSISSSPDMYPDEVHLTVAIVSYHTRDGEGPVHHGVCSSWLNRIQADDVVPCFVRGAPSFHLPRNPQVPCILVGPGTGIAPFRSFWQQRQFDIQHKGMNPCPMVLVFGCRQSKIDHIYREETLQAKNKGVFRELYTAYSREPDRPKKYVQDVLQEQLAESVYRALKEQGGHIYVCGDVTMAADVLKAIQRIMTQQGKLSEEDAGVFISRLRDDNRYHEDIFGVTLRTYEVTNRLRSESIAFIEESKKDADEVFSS

Row | IC50 [1] [µM] | IC50 ([2]; enzyme from HUVECs, 22° C., 10 minutes, read-out: IC50 in the screen for activity against the endothelial isoform of nitric oxide synthetase) [µM] | IC50 [3] [µM] | inhibition at 1 µM ([2]; at a concentration of 1 μM, reference standard) [%] | SMILES
1 | > 100 | > 100 | < 10 | – | CC(=O)Nc1cccc(NC(=N)N2CCCC2)c1 [Example 1, N-(3-((methylcarbonyl)amino)phenyl)-1-pyrrolidinecarboximidamide monohydrochloride]
2 | – | – | – | 70 to 90 | N=C(NCCC[C@H](N)C(=O)O)N[N+](=O)[O-] [N-nitro-L-arginine, reference compound]
